The source of these data is patent US9527803B2, “Crystal form VII of agomelatine, preparation method and use thereof and pharmaceutical composition containing same” (LES LABORATOIRES SERVIER, priority 2011, dated 2016).

The solubility is how much of the substance goes into solution per volume.

What all share (format): physicochemical
A short description of data set [1]: Storage stability of crystalline forms at 40° C. for 20 days, purity and content by HPLC. Conditions: for Content: external standard method; for Purity: internal standard method. As for the experimental part: Crystalline forms II, III, VI and VII (obtained through embodiment 3) are each placed in thermostatic containers at a temperature of 40° C. and stored for 20 days, with the stability of these crystalline samples being studied using the method of High Performance Liquid Chromatography.
1. Purity Measurement of the Sample
Chromatographic conditions: Octadecyl silane chemically bonded silica is used as packing; a mixed solution of 10 mmol/L phosphate buffer (adjusted to pH 7.0 with sodium hydroxide) and acetonitrile in the ratio 2:7 by volume acts as the mobile phase; column temperature 40° C.; and detection wavelength 220 nm. Purity is measured using an internal standard method.
In the mobile phase, crystalline forms II, III, VI and VII are distributed into 1 mg/mL solutions, 10 μL of each of which are then passed into a liquid chromatograph, with their chromatograms being recorded.
The reference sample purity measurement method was used, with measurements being made using an external standard method, the results are shown in Table I.

Data set [2] in a line: Measurement of water solubility (HPLC, external standard method). From the text:
3. Measurement of Water Solubility
The HPLC method was used to determine water solubility, with measurements being made using an external standard method.

Data set [3] in a line: Determination of crystalline stability (pharmacopoeia stability assessment method). More on the design: key: ✓: stable; x: unstable. Conditions: for Crystalline stability, influencing factor: high temperature / Crystalline stability, influencing factor: high humidity / Crystalline stability, influencing factor: illumination: exposed for 10 days; for Crystalline stability, influencing factor: high temperature: 60° C.; for Crystalline stability, influencing factor: high humidity: 92.5% RH; for Crystalline stability, influencing factor: high humidity / Crystalline stability, long term testing (6 months) / Crystalline stability, long term testing (9 months) / Crystalline stability, long term testing (12 months): 25° C.; for Crystalline stability, influencing factor: illumination: 4500 lx; for Crystalline stability, accelerated testing: hermetically sealed for 6 months, 40° C., 75% RH; for Crystalline stability, long term testing (6 months) / Crystalline stability, long term testing (9 months) / Crystalline stability, long term testing (12 months): hermetically sealed, 60% RH. As for the experimental part: 4. Determination of Crystalline Stability
Measured using the pharmacopoeia stability assessment method: • 1) Influencing factor testing (exposed for 10 days): high temperature (60° C.), illumination (4500 lx), high humidity (92.5% RH, 25° C.) • 2) Accelerated testing (hermetically sealed for 6 months): temperature 40° C., humidity 75% RH • 3) Long term testing (hermetically sealed for 12 months): temperature 25° C., humidity 60% RH

[4] abbreviates: After storage in thermostatically controlled containers at 40° C. for 20 days.

In brackets after ≈: the same amount, converted by molar mass. Read-outs that look alike come from different tables or passages of the source.

Turning to `COc1ccc2cccc(CCNC(C)=O)c2c1` [Crystalline form VII, N-[2-(7-methoxy-1-naphthyl)ethyl]acetamide], in data set [1] (setting [4]), the Content was 99.6% and the Purity was 99.7%. In data set [1] (Before storage), this compound returned a Content of 99.8% and a Purity of 99.8%. Further, the solubility in data set [2] (read-out: Solubility) came out at 330 µg/mL (≈ 1360 µM). Moreover, in data set [3], the “Crystalline stability, influencing factor: high temperature” value (from here on “Crystalline stability … high temperature”) was “✓”; the “Crystalline stability, influencing factor: high humidity” value (shortened to “Crystalline stability … high humidity”) is recorded as “✓”; the “Crystalline stability, influencing factor: illumination” value (“Crystalline stability … illumination” for short) is “✓”; the “Crystalline stability, accelerated testing” value is “✓”. In addition, in data set [3], the “Crystalline stability, long term testing (6 months)” value (shortened to “Crystalline stability … (6 months)”) was “✓”; the “Crystalline stability, long term testing (9 months)” value (from here on “Crystalline stability … (9 months)”) was “✓”; the “Crystalline stability, long term testing (12 months)” value (“Crystalline stability … (12 months)” for short) is listed as “✓”.
In data set [1] (setting [4]), `COc1ccc2cccc(CCNC(C)=O)c2c1` [Crystalline form III, N-[2-(7-methoxy-1-naphthyl)ethyl]acetamide] registered a Content of 99.4% and a Purity of 99.3%. Further, in data set [1] (Before storage), the Content is listed as 99.5% and the Purity turned out to be 99.9%.
In data set [1] (setting [4]), `COc1ccc2cccc(CCNC(C)=O)c2c1` [Crystalline form VI, N-[2-(7-methoxy-1-naphthyl)ethyl]acetamide] registered a Content of 99.1% and a Purity of 99.6%. For the same compound, in data set [1] (Before storage), the Content turned out to be 99.3% and the Purity was determined as 99.7%. In addition, in data set [3], the “Crystalline stability … high temperature” value is recorded as “x*”; the “Crystalline stability … high humidity” value is given as “✓”; the “Crystalline stability … illumination” value was “✓”; the “Crystalline stability, accelerated testing” value is “✓”. Moreover, in data set [3], the “Crystalline stability … (6 months)” value is “✓”; the “Crystalline stability … (9 months)” value was “✓”; the “Crystalline stability … (12 months)” value was “x”.
For `COc1ccc2cccc(CCNC(C)=O)c2c1` [Crystalline form II, N-[2-(7-methoxy-1-naphthyl)ethyl]acetamide], in data set [1] (setting [4]), the Content came out at 99.6% and the Purity is on record as 99.3%. In data set [1] (Before storage), the Content stood at 99.5% and the Purity turned out to be 99.7%. In data set [2], this compound showed a solubility of 301 µg/mL (≈ 1240 µM). For the same compound, in data set [3], the “Crystalline stability … high temperature” value is listed as “✓*”; the “Crystalline stability … high humidity” value is recorded as “✓”; the “Crystalline stability … illumination” value is recorded as “✓”; the “Crystalline stability, accelerated testing” value is reported as “✓”. Besides, in data set [3], the “Crystalline stability … (6 months)” value is on record as “✓”; the “Crystalline stability … (9 months)” value is recorded as “✓”; the “Crystalline stability … (12 months)” value was “✓”.
